Source: PubChem BioAssay AID1963975 (Molecular Pharmacology Branch, DTP, NCI, 2024)
Values belong to the compound of their own block, whether it stands above or below them.

Test system: 624824-186-R-J2-PDC multicell spheroids, viability
Assay: Anticancer human tumor 624824-186-R-J2-PDC patient-derived colon adenocarcinoma cell line growth inhibition [PI3K]
Settings: for IC50: curve of first compound; for viability, T/C: stronger effect = lower value
Procedure, shortened: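 Viability of mixed-cell spheroids was determined after exposure to pairwise combinations, one partner being inavolisib, alpelisib, duvelisib or copanlisib. Highest tested concentration matched clinical Cmax where known and 10 microM where not, descending in half-log steps.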

[1] = second compound 0.0316 µM, first compound 0.0316 µM
[2] = second compound 0.0316 µM, first compound 0.1 µM
[3] = second compound 0.0316 µM, first compound 0.316 µM
[4] = second compound 0.0316 µM, first compound 1 µM
[5] = second compound 0.1 µM, first compound 0.0316 µM
[6] = second compound 0.1 µM, first compound 0.1 µM
[7] = second compound 0.1 µM, first compound 0.316 µM
[8] = second compound 0.1 µM, first compound 1 µM
[9] = second compound 0.316 µM, first compound 0.0316 µM
[10] = second compound 0.316 µM, first compound 0.1 µM
[11] = second compound 0.316 µM, first compound 0.316 µM
[12] = second compound 0.316 µM, first compound 1 µM
[13] = second compound 1 µM, first compound 0.0316 µM
[14] = second compound 1 µM, first compound 0.1 µM
[15] = second compound 1 µM, first compound 0.316 µM
[16] = second compound 1 µM, first compound 1 µM
[17] = second compound 3.16 µM, first compound 0.0316 µM
[18] = second compound 3.16 µM, first compound 0.1 µM
[19] = second compound 3.16 µM, first compound 0.316 µM
[20] = second compound 3.16 µM, first compound 1 µM
[21] = second compound 10 µM, first compound 0.0316 µM
[22] = second compound 10 µM, first compound 0.1 µM
[23] = second compound 10 µM, first compound 0.316 µM
[24] = second compound 10 µM, first compound 1 µM
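Also: spheroids exposed to agents for 7 days before viability read.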
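For viability, T/C in this document: 100% = DMSO vehicle treated spheroids.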

IC50 (second compound 0.0316 µM): 4.26 µM
IC50 (second compound 0.1 µM): 4.34 µM
IC50 (second compound 0.316 µM): 4.4 µM
IC50 (second compound 1 µM): 4.64 µM
IC50 (second compound 3.16 µM): 3.67 µM
IC50 (second compound 10 µM): 1.61 µM
Compound: CC1(C)CCC(Nc2ncc(C(F)(F)F)c(-c3c[nH]c4c(P(C)(C)=O)c(C#N)ccc34)n2)CN1 (stereo unspecified) + Cc1nc(NC(=O)N2CCCC2C(N)=O)sc1-c1ccnc(C(C)(C)C(F)(F)F)c1
viability, T/C [1]: 81.3%
viability, T/C [2]: 99.4%
viability, T/C [3]: 103%
viability, T/C [4]: 121%
viability, T/C (second compound 0.0316 µM, first compound 3.16 µM): 64.8%
viability, T/C (second compound 0.0316 µM, first compound 10 µM): 7.6%
viability, T/C [5]: 92.7%
viability, T/C [6]: 92.9%
viability, T/C [7]: 99.4%
viability, T/C [8]: 108%
viability, T/C (second compound 0.1 µM, first compound 3.16 µM): 66.1%
viability, T/C (second compound 0.1 µM, first compound 10 µM): 7.74%
viability, T/C [9]: 100%
viability, T/C [10]: 81.8%
viability, T/C [11]: 92.1%
viability, T/C [12]: 115%
viability, T/C (second compound 0.316 µM, first compound 3.16 µM): 67.6%
viability, T/C (second compound 0.316 µM, first compound 10 µM): 6.46%
viability, T/C [13]: 96%
viability, T/C [14]: 93.4%
viability, T/C [15]: 97.7%
viability, T/C [16]: 93.6%
viability, T/C (second compound 1 µM, first compound 3.16 µM): 72%
viability, T/C (second compound 1 µM, first compound 10 µM): 5.53%
viability, T/C [17]: 79%
viability, T/C [18]: 83.8%
viability, T/C [19]: 91.4%
viability, T/C [20]: 74%
viability, T/C (second compound 3.16 µM, first compound 3.16 µM): 57.3%
viability, T/C (second compound 3.16 µM, first compound 10 µM): 5.49%
viability, T/C [21]: 77.8%
viability, T/C [22]: 73.8%
viability, T/C [23]: 62%
viability, T/C [24]: 54.5%
viability, T/C (second compound 10 µM, first compound 3.16 µM): 45.2%
viability, T/C (second compound 10 µM, first compound 10 µM): 6.69%

IC50 (second compound 0.0316 µM): > 1 µM
IC50 (second compound 0.1 µM): > 1 µM
IC50 (second compound 0.316 µM): > 1 µM
IC50 (second compound 1 µM): > 1 µM
IC50 (second compound 3.16 µM): > 1 µM
IC50 (second compound 10 µM): > 1 µM
Compound: CCN1CCN(Cc2ccc(Nc3ncc(F)c(-c4cc(F)c5nc(C)n(C(C)C)c5c4)n3)nc2)CC1 + CC(Nc1ncnc2nc[nH]c12)c1cc2cccc(Cl)c2c(=O)n1-c1ccccc1
viability, T/C (second compound 0.0316 µM, first compound 0.00316 µM): 91.4%
viability, T/C (second compound 0.0316 µM, first compound 0.01 µM): 125%
viability, T/C [1]: 77.5%
viability, T/C [2]: 83.9%
viability, T/C [3]: 85.3%
viability, T/C [4]: 101%
viability, T/C (second compound 0.1 µM, first compound 0.00316 µM): 121%
viability, T/C (second compound 0.1 µM, first compound 0.01 µM): 100%
viability, T/C [5]: 100%
viability, T/C [6]: 102%
viability, T/C [7]: 88.1%
viability, T/C [8]: 115%
viability, T/C (second compound 0.316 µM, first compound 0.00316 µM): 99.8%
viability, T/C (second compound 0.316 µM, first compound 0.01 µM): 96.2%
viability, T/C [9]: 95.5%
viability, T/C [10]: 66.9%
viability, T/C [11]: 92%
viability, T/C [12]: 112%
viability, T/C (second compound 1 µM, first compound 0.00316 µM): 104%
viability, T/C (second compound 1 µM, first compound 0.01 µM): 72.2%
viability, T/C [13]: 85.8%
viability, T/C [14]: 81.4%
viability, T/C [15]: 93.7%
viability, T/C [16]: 102%
viability, T/C (second compound 3.16 µM, first compound 0.00316 µM): 91%
viability, T/C (second compound 3.16 µM, first compound 0.01 µM): 86.5%
viability, T/C [17]: 77.3%
viability, T/C [18]: 95.8%
viability, T/C [19]: 111%
viability, T/C [20]: 112%
viability, T/C (second compound 10 µM, first compound 0.00316 µM): 120%
viability, T/C (second compound 10 µM, first compound 0.01 µM): 100%
viability, T/C [21]: 114%
viability, T/C [22]: 91.6%
viability, T/C [23]: 91.2%
viability, T/C [24]: 101%

IC50 (second compound 0.0316 µM): > 3 µM
IC50 (second compound 0.1 µM): > 3 µM
IC50 (second compound 0.316 µM): > 3 µM
IC50 (second compound 1 µM): > 3 µM
IC50 (second compound 3.16 µM): 0.69 µM
IC50 (second compound 10 µM): 0.0836 µM
Compound: Cn1cnc2c(F)c(Nc3ccc(Br)cc3Cl)c(C(=O)NOCCO)cc21 + Cc1nc(NC(=O)N2CCCC2C(N)=O)sc1-c1ccnc(C(C)(C)C(F)(F)F)c1
viability, T/C (second compound 0.0316 µM, first compound 0.00949 µM): 90.2%
viability, T/C (second compound 0.0316 µM, first compound 0.03 µM): 68.3%
viability, T/C (second compound 0.0316 µM, first compound 0.0949 µM): 78%
viability, T/C (second compound 0.0316 µM, first compound 0.3 µM): 91.2%
viability, T/C (second compound 0.0316 µM, first compound 0.949 µM): 89.4%
viability, T/C (second compound 0.0316 µM, first compound 3 µM): 76.4%
viability, T/C (second compound 0.1 µM, first compound 0.00949 µM): 82.8%
viability, T/C (second compound 0.1 µM, first compound 0.03 µM): 79.7%
viability, T/C (second compound 0.1 µM, first compound 0.0949 µM): 72.9%
viability, T/C (second compound 0.1 µM, first compound 0.3 µM): 78.5%
viability, T/C (second compound 0.1 µM, first compound 0.949 µM): 83.1%
viability, T/C (second compound 0.1 µM, first compound 3 µM): 77.4%
viability, T/C (second compound 0.316 µM, first compound 0.00949 µM): 86.7%
viability, T/C (second compound 0.316 µM, first compound 0.03 µM): 71.8%
viability, T/C (second compound 0.316 µM, first compound 0.0949 µM): 74.3%
viability, T/C (second compound 0.316 µM, first compound 0.3 µM): 70.5%
viability, T/C (second compound 0.316 µM, first compound 0.949 µM): 77.7%
viability, T/C (second compound 0.316 µM, first compound 3 µM): 66.7%
viability, T/C (second compound 1 µM, first compound 0.00949 µM): 90.3%
viability, T/C (second compound 1 µM, first compound 0.03 µM): 61.8%
viability, T/C (second compound 1 µM, first compound 0.0949 µM): 66.6%
viability, T/C (second compound 1 µM, first compound 0.3 µM): 62.7%
viability, T/C (second compound 1 µM, first compound 0.949 µM): 77.5%
viability, T/C (second compound 1 µM, first compound 3 µM): 51.5%
viability, T/C (second compound 3.16 µM, first compound 0.00949 µM): 82.2%
viability, T/C (second compound 3.16 µM, first compound 0.03 µM): 73.8%
viability, T/C (second compound 3.16 µM, first compound 0.0949 µM): 79.6%
viability, T/C (second compound 3.16 µM, first compound 0.3 µM): 63.8%
viability, T/C (second compound 3.16 µM, first compound 0.949 µM): 44.6%
viability, T/C (second compound 3.16 µM, first compound 3 µM): 22.2%
viability, T/C (second compound 10 µM, first compound 0.00949 µM): 63%
viability, T/C (second compound 10 µM, first compound 0.03 µM): 58.4%
viability, T/C (second compound 10 µM, first compound 0.0949 µM): 43.1%
viability, T/C (second compound 10 µM, first compound 0.3 µM): 44.5%
viability, T/C (second compound 10 µM, first compound 0.949 µM): 17.7%
viability, T/C (second compound 10 µM, first compound 3 µM): 1.93%
